Measurements taken from PubChem BioAssay AID2060337 (Molecular Pharmacology Branch, DTP, NCI, 2025).

Test system: 832693-133-R-J1-PDC multi-cell spheroids, viability
Assay: Anticancer human tumor 832693-133-R-J1-PDC patient-derived head and neck squamous carcinoma cell line growth inhibition [IpAb]
Conditions: for IC50: curve of first compound; for viability, T/C: stronger effect = lower value
From the text: Combinatorial screen of targeted agents with ipatasertib and abemaciclib in multi-cell type tumor spheroids
A high-throughput screen of multi-cell type tumor spheroids was designed to identify active combinations of targeted small molecules and ipatasertib or abemaciclib. Complex spheroids include a stromal component modeled by human endothelial cells (HUVEC) and fibroblasts modeled by human mesenchymal stem cells (MSCs). The concentration ranges selected for each drug and investigational agent were based upon clinically achievable concentrations if the clinical Cmax of the agent was known.
Compounds. The drugs and investigational agents: ipatasertib (NSC767898), abemaciclib(NSC768073), selumetinib (NSC741078), trametinib (758246), adavosertib (NSC754352), everolimus (NSC733504), sapanisertib (NSC764658), vemurafenib (NSC761431), venetoclax (NSC766270), copanlisib (NSC809693), apelisib (NSC765974), palbociblib (NSC758247), vemurafenib (NSC761431), dabrafenib (NSC764134), ravoxertinib (NSC781343), BMS-387032 (NSC767048), sotorasib (NSC818433), talazoparib (NSC767125) and afursertib (NSC778305), were obtained from the National Cancer Institute (NCI) Developmental Therapeutics Program Chemical Repository. The FDA-approved anticancer drug set is available from the NCI Developmental Therapeutics Program. […] The stock solutions were prepared in dimethyl sulfoxide (DMSO, Sigma-Aldrich, St. Louis, MO, cat. D2650) at 800-fold the tested concentration and stored at -70 degrees C prior to their use. All drugs and investigational agents were tested over a range starting from a high concentration at or near the clinical Cmax and decreasing in half-log increments. If the clinical Cmax for an agent had not been determined, the highest concentration tested was 10 microM.
NCI60 Cell Culture. NCI60 cell lines were obtained from the NCI Developmental Therapeutics Program Tumor Repository. For each lot of cells, the Repository performed Applied Biosystems AmpFLSTR Identifiler testing with PCR amplification to confirm consistency with the published Identifier STR profile for each cell line. Cells were kept in continuous culture for no more than 20 passages. The optimal seeding densities for each of the cell lines at each time point assessed were determined prior to performing the concentration response studies. Briefly, the NCI60 human tumor lines were grown as monolayers in RPMI 1640 medium supplemented with 10% FBS and 2 mmol/L L-glutamine.
An additional 9 lines were from the NCI60 cell line panel including MDA-MB-231 breast carcinoma, MDA-MB-468 breast carcinoma, MCF7 breast carcinoma, Hs578T breast carcinoma, MALME-3M melanoma, SK-MEL-2 melanoma, SK-OV-3 ovarian carcinoma, DU-145 prostate carcinoma, PC-3 prostate carcinoma, all cell lines along with major genetic alterations are listed on Table 2. Pooled donor human umbilical vein endothelial cells (HUVEC, Lonza, cat. CC-2519) and human mesenchymal stem cells (hMSC, Lonza, cat. PT-2501) were purchased from Lonza (Walkersville, MD).
PDMR cell lines were grown in complete medium (DC medium): Dulbecco's modified Eagle's medium (DMEM)/F12 supplemented with 5% fetal bovine serum (FBS), 2 mM L-glutamine, 100 U/mL penicillin and 100 µg/ml streptomycin, 0.4 µg/ml hydrocortisone, 10 ng/ml epidermal growth factor (EGF) recombinant human protein, 24 µg/mL adenine, and 0.1 mg/mL primocin. During culture from frozen stock vials, PDMR cells were cultured in the same medium containing 10 µM Y-27632 (see Table 3). The PDCs were cultured in complete DMEM/F12 media without 10 microM Y-27632 dihydrochloride for at least two passages prior to the screen. The pooled donor HUVEC and hMSC were cultured in endothelial cell growth medium 2 (PromoCell, Heidelberg, Germany, cat. C-22011) and mesenchymal stem cell growth medium 2 (PromoCell, cat. C-28009), respectively. For all experiments, HUVEC and hMSC were used at passages </=5.
[…]

[1] = second compound 0.1 µM, first compound 0.0316 µM
[2] = second compound 0.1 µM, first compound 0.1 µM
[3] = second compound 0.316 µM, first compound 0.0316 µM
[4] = second compound 0.316 µM, first compound 0.1 µM
[5] = second compound 1 µM, first compound 0.0316 µM
[6] = second compound 1 µM, first compound 0.1 µM
[7] = second compound 3.16 µM, first compound 0.0316 µM
[8] = second compound 3.16 µM, first compound 0.1 µM
[9] = second compound 10 µM, first compound 0.0316 µM
[10] = second compound 10 µM, first compound 0.1 µM
[11] = second compound 0.1 µM, first compound 0.316 µM
[12] = second compound 0.1 µM, first compound 1 µM
[13] = second compound 0.1 µM, first compound 3.16 µM
[14] = second compound 0.1 µM, first compound 10 µM
[15] = second compound 0.316 µM, first compound 0.316 µM
[16] = second compound 0.316 µM, first compound 1 µM
[17] = second compound 0.316 µM, first compound 3.16 µM
[18] = second compound 0.316 µM, first compound 10 µM
[19] = second compound 1 µM, first compound 0.316 µM
[20] = second compound 1 µM, first compound 1 µM
[21] = second compound 1 µM, first compound 3.16 µM
[22] = second compound 1 µM, first compound 10 µM
[23] = second compound 3.16 µM, first compound 0.316 µM
[24] = second compound 3.16 µM, first compound 1 µM
[25] = second compound 3.16 µM, first compound 3.16 µM
[26] = second compound 3.16 µM, first compound 10 µM
[27] = second compound 10 µM, first compound 0.316 µM
[28] = second compound 10 µM, first compound 1 µM
[29] = second compound 10 µM, first compound 3.16 µM
[30] = second compound 10 µM, first compound 10 µM
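Note: spheroids exposed to the drugs for one week before the viability readout.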
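Throughout, for viability, T/C: 100% = DMSO vehicle control wells.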

In the case of `CC(C)n1nc(-c2ccc3oc(N)nc3c2)c2c(N)ncnc21` + CC(C)NCC(C(=O)N1CCN(c2ncnc3c2C(C)CC3O)CC1)c1ccc(Cl)cc1, the IC50 (second compound 0.1 µM) is reported as 0.0789 µM, the IC50 (second compound 0.316 µM) is reported as > 0.1 µM and the IC50 (second compound 1 µM) is reported as > 0.1 µM. For the same compound, the IC50 (second compound 3.16 µM) was > 0.1 µM, the IC50 (second compound 10 µM) was > 0.1 µM and the viability, T/C (second compound 0.1 µM, first compound 0.000316 µM) was 88.9%. For the same compound, the viability, T/C (second compound 0.1 µM, first compound 0.001 µM) was 90.7%, the viability, T/C (second compound 0.1 µM, first compound 0.00316 µM) was 82.2% and the viability, T/C (second compound 0.1 µM, first compound 0.01 µM) was 69.3%. It also gave a viability, T/C [1] of 61%, a viability, T/C [2] of 47.7% and a viability, T/C (second compound 0.316 µM, first compound 0.000316 µM) of 67.5%. It also gave a viability, T/C (second compound 0.316 µM, first compound 0.001 µM) of 73.5%, a viability, T/C (second compound 0.316 µM, first compound 0.00316 µM) of 75.5% and a viability, T/C (second compound 0.316 µM, first compound 0.01 µM) of 88.4%. It also gave a viability, T/C [3] of 81%, a viability, T/C [4] of 52.2% and a viability, T/C (second compound 1 µM, first compound 0.000316 µM) of 59.4%. It also gave a viability, T/C (second compound 1 µM, first compound 0.001 µM) of 74.5%, a viability, T/C (second compound 1 µM, first compound 0.00316 µM) of 106% and a viability, T/C (second compound 1 µM, first compound 0.01 µM) of 97.2%. The viability, T/C [5] was 71.2%, the viability, T/C [6] was 56.7% and the viability, T/C (second compound 3.16 µM, first compound 0.000316 µM) was 68.9%. For the same compound, the viability, T/C (second compound 3.16 µM, first compound 0.001 µM) was 98.9%, the viability, T/C (second compound 3.16 µM, first compound 0.00316 µM) was 106% and the viability, T/C (second compound 3.16 µM, first compound 0.01 µM) was 69.2%. For the same compound, the viability, T/C [7] was 66.1%, the viability, T/C [8] was 63.9% and the viability, T/C (second compound 10 µM, first compound 0.000316 µM) was 77%. It also gave a viability, T/C (second compound 10 µM, first compound 0.001 µM) of 96.2%, a viability, T/C (second compound 10 µM, first compound 0.00316 µM) of 69.7% and a viability, T/C (second compound 10 µM, first compound 0.01 µM) of 45.4%. For the same compound, the viability, T/C [9] was 53% and the viability, T/C [10] was 51.5%.

For `CC1(C)CCC(CN2CCN(c3ccc(C(=O)NS(=O)(=O)c4ccc(NCC5CCOCC5)c([N+](=O)[O-])c4)c(Oc4cnc5[nH]ccc5c4)c3)CC2)=C(c2ccc(Cl)cc2)C1` + CC(C)NCC(C(=O)N1CCN(c2ncnc3c2C(C)CC3O)CC1)c1ccc(Cl)cc1, the IC50 (second compound 0.1 µM) was 9.68 µM, the IC50 (second compound 0.316 µM) was 4.87 µM and the IC50 (second compound 1 µM) was 3.92 µM. For the same compound, the IC50 (second compound 3.16 µM) was 3.74 µM, the IC50 (second compound 10 µM) was 3.64 µM and the viability, T/C [1] was 94.1%. It also gave a viability, T/C [2] of 90.3%, a viability, T/C [11] of 94.6% and a viability, T/C [12] of 88.5%. It also gave a viability, T/C [13] of 82.7%, a viability, T/C [14] of 48.8% and a viability, T/C [3] of 81.2%. It also gave a viability, T/C [4] of 80.3%, a viability, T/C [15] of 74.2% and a viability, T/C [16] of 64.7%. For the same compound, the viability, T/C [17] was 68.7%, the viability, T/C [18] was 26.9% and the viability, T/C [5] was 60.9%. The viability, T/C [6] was 55.2%, the viability, T/C [19] was 55.2% and the viability, T/C [20] was 49.5%. It also gave a viability, T/C [21] of 72.4%, a viability, T/C [22] of 12.7% and a viability, T/C [7] of 51.2%. The viability, T/C [8] was 47.6%, the viability, T/C [23] was 55.5% and the viability, T/C [24] was 57.3%. For the same compound, the viability, T/C [25] was 73.2%, the viability, T/C [26] was 8.99% and the viability, T/C [9] was 58.6%. For the same compound, the viability, T/C [10] was 62.5%, the viability, T/C [27] was 52.2% and the viability, T/C [28] was 51.6%. The viability, T/C [29] was 57.4% and the viability, T/C [30] was 3.92%.

`CCCS(=O)(=O)Nc1ccc(F)c(C(=O)c2c[nH]c3ncc(-c4ccc(Cl)cc4)cc23)c1F` + CC(C)NCC(C(=O)N1CCN(c2ncnc3c2C(C)CC3O)CC1)c1ccc(Cl)cc1 was tested, and the IC50 (second compound 0.1 µM) was 8.04 µM, the IC50 (second compound 0.316 µM) was > 10 µM and the IC50 (second compound 1 µM) was > 10 µM. The IC50 (second compound 3.16 µM) was > 10 µM, the IC50 (second compound 10 µM) was > 10 µM and the viability, T/C [1] was 99.1%. It also gave a viability, T/C [2] of 102%, a viability, T/C [11] of 92.5% and a viability, T/C [12] of 91.1%. For the same compound, the viability, T/C [13] was 88.1%, the viability, T/C [14] was 41.4% and the viability, T/C [3] was 79.5%. The viability, T/C [4] was 79.2%, the viability, T/C [15] was 93% and the viability, T/C [16] was 92.9%. The viability, T/C [17] was 110%, the viability, T/C [18] was 56.9% and the viability, T/C [5] was 60.1%. For the same compound, the viability, T/C [6] was 66.3%, the viability, T/C [19] was 66.7% and the viability, T/C [20] was 85.6%. It also gave a viability, T/C [21] of 139%, a viability, T/C [22] of 103% and a viability, T/C [7] of 54.2%. The viability, T/C [8] was 54.8%, the viability, T/C [23] was 62.6% and the viability, T/C [24] was 82.2%. It also gave a viability, T/C [25] of 126%, a viability, T/C [26] of 92% and a viability, T/C [9] of 53.5%. For the same compound, the viability, T/C [10] was 60.5%, the viability, T/C [27] was 61.5% and the viability, T/C [28] was 68.7%. For the same compound, the viability, T/C [29] was 98.8% and the viability, T/C [30] was 56.1%.
